Results as given in US4407796A, “Modulators of the complement system” (American Cyanamid Company, priority 1981, dated 1983).
Structures can show the parent of a compound that is named as a salt.

Legend:
[1] = system: late components of human complement (C3-C9); assay: Test Code 035 (C3-C9 inhibitor), lysis of EAC 142; format: biochemical; details: serial twofold dilution assay; higher well number indicates higher activity
Procedure: (§1) An active inhibitor protects C2 from C1 and C4; (ii) Test Code 035 (C3-C9 inhibitor)--This test determines the ability of the late components of human complement (C3-C9) to lyse EAC 142 in the presence of appropriate dilutions of the test compound. An active inhibitor protects EAC 142 from lysis by human C3-C9; (iii) Cap 50 Test--Here, appropriate amounts of the test compound are added to a pool of guinea pig or human serum in vitro, after which the undiluted serum capillary tube assay of U.S. Pat. No. 3,876,376 is run. The concentration of compound inhibiting 50% is reported; and (iv) Guinea Pig Intraperitoneal Test (GPIP)--Guinea pigs weighing about 300 g are dosed intraperitoneally (i.p.) with 200 mg/kg of the test compound dissolved in saline and adjusted to pH 7-8. Approximately 0.4 ml blood samples, taken by orbital sinus puncture 2 hours and 6 hours after injections, are collected directly into centrifuge tubes; 5 ml blood samples, taken by decapitation 24 hours after injection, are collected directly into beakers. The samples are allowed to clot, centrifuged, and the resultant sera are assayed for complement activity using the capillary complement assay. Percent inhibition is calculated by comparison with simultaneous controls. The results of the GPIP appear in Table I together with results of Test Code 026, 035 and Cap 50.

activated human C1 = activated human C1 (Homo sapiens, UniProt P09871); assay: Test Code 026 (C1 inhibitor); format: biochemical; details: serial twofold dilution assay; higher well number indicates higher activity
Procedure: as §1

human serum complement = details: both in vitro and in vivo; cited from earlier work

| Compound | C-Late 035 Wells [1] | C1 026 Wells (activated human C1) | anticomplementary activity, judged by reduction in total hemolytic complement activity (human serum complement) |
| --- | --- | --- | --- |
| O=S(=O)(O)OC[C@H]1O[C@@H](Sc2cccc(S[C@@H]3O[C@H](COS(=O)(=O)O)[C@@H](O[C@H]4O[C@H](COS(=O)(=O)O)[C@@H](OS(=O)(=O)O)[C@H](OS(=O)(=O)O)[C@H]4OS(=O)(=O)O)[C@H](OS(=O)(=O)O)[C@H]3OS(=O)(=O)O)c2)[C@H](OS(=O)(=O)O)[C@@H](OS(=O)(=O)O)[C@@H]1O[C@H]1O[C@H](COS(=O)(=O)O)[C@@H](OS(=O)(=O)O)[C@H](OS(=O)(=O)O)[C@H]1OS(=O)(=O)O [1,3-Bis-[4-O-α-D-glucopyranosyl-β-D-glucopyranosyl-1-thio]-phenylene, tetradecakis(H-sulfate),tetradecasodium salt] | 0.9 Wells | 12 Wells |  |
| O=S(=O)(O)OC[C@H]1O[C@@H](Sc2ccc(-c3ccc(S[C@@H]4O[C@H](COS(=O)(=O)O)[C@@H](O[C@H]5O[C@H](COS(=O)(=O)O)[C@@H](OS(=O)(=O)O)[C@H](OS(=O)(=O)O)[C@H]5OS(=O)(=O)O)[C@H](OS(=O)(=O)O)[C@H]4OS(=O)(=O)O)cc3)cc2)[C@H](OS(=O)(=O)O)[C@@H](OS(=O)(=O)O)[C@@H]1O[C@H]1O[C@H](COS(=O)(=O)O)[C@@H](OS(=O)(=O)O)[C@H](OS(=O)(=O)O)[C@H]1OS(=O)(=O)O [4,4'-Bis-[4-O-α-D-glucopyranosyl-β-D-glucopyranosyl-1-thio]-1,1'-biphenylene, tetradecakis(H-sulfate), tetradecasodium salt] | 2 Wells | 13 Wells |  |
| pentosanpolysulfoester |  |  | anticomplementary activity |
